Data taken from patent US20040087539A1, “Method of treating conditions related to platelet activity” (priority 2003, published 2004).

Columns and labels:
[1] = test system: platelets; test: Ristocetin-induced vWF-dependent platelet aggregation in platelet-rich plasma; assay type: cell-based, human; settings: for integrin-dependent second wave of platelet aggregation induced by ristocetin: PRP preincubated 37° C. 5 min, KT5823 2 pM, Rp-8pCPT-cGMP 0.2 μM, KT5720 2 pM [sic], FIG. 3A
Procedure: (§1) Fresh blood from healthy volunteers was anticoagulated with 1/7 volume of ACD (2.5% trisodium citrate, 2% dextrose and 1.5% citric acid). Platelets were washed with CGS buffer (sodium chloride 0.12 M, trisodium citrate 0.0129 M and d-glucose 0.03 M, pH 6.5), resuspended in modified Tyrode's solution and allowed to incubate at 22° C. for 1 hours as previously described. In experiments using platelet-rich plasma (PRP), 1/10 volume of 3.8% trisodium citrate was used as anticoagulant. Platelet aggregation was measured using a turbidometric platelet aggregometer (Chrono-Log) at 37° C. vWF-dependent platelet aggregation was induced by addition of ristocetin or botrocetin to PRP. To differentiate CPIb-IX-mediated platelet agglutination from the second wave of integrin-dependent platelet aggregation, final concentrations of ristocetin were adjusted in each experiment to achieve a two-wave curve of aggregation. Washed platelets were used in platelet aggregation induced by a-thrombin (Enzyme Research Laboratories). To examine the effects of PKG, 100 μM of membrane permeable cGMP analogs, 8-bromo-cGMP or 8-dibutyl-cGMP (Calbiochem), or 1 μM sildenafil citrate (Pfizer) and added simultaneously with subthreshold concentrations of agonists. PKG inhibitors KT5823 (2 pM) and Rp-8PCPT-cGMP (0.2 mM) were preincubated with platelets at 37° C. for 5 minutes before addition of agonists.
(§2) In FIG. 3A, platelet rich-plasma (PRP) was preincubated at 37° C. for 5 mm with PKG inhibitors KT5823 (2 pM) or Rp-8pCPT-cGMP (0.2 μM). PRP was also incubated with DMSO (vehicle for KT5823), a PKA inhibitor, KT5720 (2 pM), or buffer (Control). The vWF modulator, ristocetin, was then added to induce vWF-GPIb-IX interaction. […] In FIG. 3B, a subthreshold concentration of ristocetin was added to PRP immediately followed by addition of 8-bromo-cGMP or buffer (Control). PRP also was preincubated with integrin inhibitor RGDS before adding ristocetin and 8-bromo-cGMP. In FIG. 3C, platelets were preincubated with or without PKG inhibitor KT5823, then allowed to spread on vWF-coated glass chamber slides. Platelets were stained with an anti-GPIb antibody, and fluorescein-labeled secondary antibody. The slides were imaged under a confocal microscope (magnification =630×).
(§3) In FIG. 6A, increasing concentrations of sildenafil or control 0.15 M NaCl solution were added to platelet-rich plasma followed by a subthreshold concentration of ristocetin. Platelet aggregation was recorded using a platelet aggregometer. In FIG. 6B, sildenafil or control buffer was added to washed platelets followed by addition of subthreshold doses of thrombin to induce platelet aggregation. It was noted that platelet aggregation occurs in the presence of sildenafil. The figure includes the representative results of at least three experiments.
(§4) In FIG. 7A, PRP was preincubated with 0.1 mM 8-bromo-cGMP for increasing lengths of time at 37° C. as indicated. The vWF modulator, ristocetin (1.25 mg/ml), then was added to induce platelet aggregation in a turbidometric platelet aggregometer. In FIG. 7B, PRP was preincubated with a high concentration of 8-bromo-cGMP (1 mM) for 5 minutes. Ristocetin then was added to induce platelet aggregation. In FIGS. 7C and 7D, washed platelets in modified Tyrode's solution were preincubated with 1 mM 8-bromo-cGMP (C), or various concentrations of 8-pCPT-cGMP (D) at 37° C. for 5 minutes. Thrombin (0.05 u/ml) then was added to induce platelet aggregation.

[2] = test system: platelets; test: Low-dose α-thrombin-induced aggregation of washed platelets; assay type: cell-based, human; settings: for platelet aggregation induced by 0.05 units/ml α-thrombin: washed platelets preincubated 5 min, KT5823 2 μM, Rp-8pCPT-cGMP 0.2 mM, SZ2 40 pg/ml [sic], FIG. 5A
Procedure: as §1
In FIG. 5A, washed platelets were preincubated with 40 pg/mi anti-GPIba monoclonal antibody SZ2, integrin inhibitor RGDS, or inhibitors of PKG, KT5823 (2 μM) or Rp-8pCPT-cGMP (0.2 mM) (Calbiochem), for 5 min. Platelets also were preincubated with DMSO (vehicle for KT5823), KT5720 or buffer (Control) as controls. α-Thrombin (0.05 units/mi) then was added to induce platelet aggregation. Nonspecific JgG and RGES peptides also were examined as additional controls, but had no effect (not shown). In FIG. 5B, a subthreshold dose of thrombin was added to platelets immediately followed by addition of PKG activator 8-bromo-cGMP or buffer (Control). Shown in the figure are the representative results of at least three experiments.
as §3, §4

[3] = test system: 123 cells (CHO cells expressing recombinant human GPIb-IX and integrin αIIbβ3); test: vWF-induced GPIb-IX-mediated activation of integrin αIIbβ3 (Oregon green-labeled fibrinogen binding, flow cytometry); assay type: cell-based, Chinese Hamster; settings: 123 cells; preliminary studies, data not shown
Procedure: Human PKG Iβ cDNA was cloned by RT-PCR, using human platelet mRNA as templates. Sequence of the human PKG Iβ cDNA fragment matches the published sequence. Cloning of human PKG Iα cDNA was described previously. PKG Iα or Iβ in pCDNA3.1/Zeo+vector was transfected into 123 cells (CHO cells expressing recombinant human CPIb-IX and integrin αIIbβ3 using Lipofectamine plus (BRL). Expression of PKG was assessed by Western blotting with an antihuman PKG I antibody (Calbiochem). The kinase activity of the expressed enzymes was measured in cell homogenates using BPDEtide (Calbiochem) as substrate as detailed previously. vWF-induced GPIb-IX-mediated activation of integrin αIIbβ3 was examined by flow cytometry analysis of Oregon green-labeled fibrinogen binding to integrln αIIbβ3 as described previously. Briefly, cells were detached from tissue culture plate using 0.5 mM EDTA, washed at 4° C. and resuspended in modified Tyrode's solution. Cells then were incubated with Oregon green-labeled fibrinogen (20 μg/ml) in the presence of ristocetin and vWF at 22° C. for 30 minutes, and analyzed by FACScalibur flow cytometer. Nonspecific binding of fibrinogen was estimated by measuring fibrinogon binding in the presence of a specific integrin inhibitor RGDS (1 mM) (see Refs. 13 and 43-45).
In FIG. 1A, CHO cells expressing GPLb-JX and integrin αIIbβ3 (123 cells) were transfected with cDNA encoding PKGIα or vector. Expression of PKG Ia in 123 cells was detected by Western blotting with an anti-human PKG I antibody (Insert), and recombinant PKG activity was determined in the absence or presence of 20 μM 8-bromo-cGMP as previously described. Results are expressed as mean +SD (n=3). For FIGS. 1B and 1C, reconstitution of GPIb-IX-mediated integrin activation in CHO cells was published (see Ref. 13). […] Cells were analyzed by flow cytometry. Quantitative results from three experiments are expressed as fibrinogen binding indices (total bound fluorescence (Fg)/nonspecifically bound fluorescence (Fg+RGDS)), and shown in FIG. 1B (mean ±SD).

[4] = test system: platelets; test: Platelet spreading on vWF-coated surface; assay type: cell-based, human; settings: FIG. 3C
Procedure: Platelets were allowed to adhere and spread on 10 μg/ml vWF-coated glass chamber slides (Nunc) at 37° C. for 1 hour. After three washes, platelets were fixed by adding 4% paraformaldehyde in PBS. Platelets were permeabilized by adding 0.1 M Tris, 0.01 M EGTA, 0.15 M NaCl, 5 mM MgCl2, pH 7.4, containing 0.1% Triton X-100, 0.5 mM leupeptin, 1 mM PMSF, and 0.1 mM E64, and then incubated with 20 μg/ml of anti-GPIba antibody (anti-IbαC) at 22° C. for 1 hour. Platelets were further incubated with fluorescein-labeled secondary antibody at 22° C. for 30 mm. After additional washes, platelets were scanned under a Zeiss LSM 510 confocai microscope (Magnification=630×).
as §2, with “Platelets were stained with an anti-GPIb antibody, and fluorescein-labeled secondary antibody. The slides were imaged under a confocal microscope (magnification =630×).” left out

[5] = test system: platelets; test: Measurement of cGMP formation in washed platelets (enzyme immunoassay); assay type: cell-based, human; settings: ristocetin plus vWF 15 μg/ml or glyco-SNAP1 100 μM, 5 minutes, FIG. 4
Procedure: Washed platelets (3×10^8/ml) resuspended in 400 μl Tyrode's buffer were stirred at 37° C. after addition of control buffer, 1 mg/mi ristocetin alone, 15 pg/mi vWF and 1 mg/mi ristocetin, or 100 μM glyco-SNP1. The reaction was stopped by addition of 400 μl of ice-cold 12% (w/v) trichloroacetic acid. Samples were mixed and centrifuged at 2000×g for 15 ruin at […]. Supenatant was removed and washed with 5 volumes of water-saturated diethyl ether 4 times, and then lyophilized. cGMP levels were measured using a cGMP enzyme immunoassay kit from Amersham-Pharmacia Biotech.
Washed platelets (3×10^8/ml) were preincubated at 37° C. for 10 mm with buffer, control JgG, a monoclonal antibody against GPIba, AK2. Platelets then were further incubated in a platelet aggregometer for 5 minutes after addition of buffer (Control), 1.25 mg/ml ristocetin only (Risto), ristocetin plus vWF (vWF) (15 μg/ml) or glyco-SNAP1 (100 μM). The reaction was stopped by addition of 400 μl of ice-cold 12% (w/v) trichloroacetic acid. CGMP concentrations were determined using a cGMP enzyme immunoassay kit. Results are expressed as mean ±SD (n=3).

[6] = test system: CHO cells expressing human platelet receptors; test: Cell adhesion to immobilized vWF under flow; assay type: cell-based, Chinese Hamster; settings: sildenafil 5 μM, RGDS 4 mM
Procedure: CHO cells expressing human platelet receptors were resuspended in modified Tyrode's buffer, pH 7.4, containing 1 mg/mi of bovine serum albumin (BSA) (see Ref. 46), and final cell count was 5×10^5/ml. […] Purified human vWF (10 μg/ml in 0.1 M NaHCO3, pH 8.3) was added to glass microcapillary tubes (inner diameter of 1.33 mm and a length of 7.2 cm), and incubated at 4° C. for 20 h. The vWF-coated microcapillary tubes then were incubated with 5% BSA. After washing, the cell suspension was aspirated through the tube by a syringe pump (Harvard Apparatus Inc.) at desired shear rates for 1.2 minutes and washed with modified Tyrode's buffer for additional 10 minutes at the same shear rates to remove transiently adherent cells. The experiments were continuously recorded on videotape using a video cassette recorder (model 9500, Sony). The number of stably adherent cell on immobilized vWF was counted on images obtained at 20 randomly selected positions in the vWF-coated tubes.
In FIGS. 2A and B, vWF-coated capillary tubes were perfused with equivalent numbers (5×10^5/ml) of CHO cells expressing recombinant GPLb-JX alone (1b9), integrin αIIbβ3 alone (2b3a), both GPIb-IX and integrin αIIbβ3 (123) or expressing GPJb-JX, integrin α^IIbβ3 and PKG Ia (123PKG) at a shear rates of 800 s^−1 (A) or 1500 s^−1 (B) for 1.2 minutes, and then perfused with the modified Tyrodes buffer for 10 minutes at the same shear rates to wash out transient adherent cells. The expenments were recorded in real time. Cells stably adherent to vWF-coated capillary tubes at 20 randomly selected locations were counted.
In FIG. 2C, vector-transfected 123 cells (123) or 123PKG cells also was perfused into vWF-coated glass capillary tubes as described in FIG. 2A in the absence or presence (+RGDS) of an integrin inhibitor RGDS peptide (4 mM) and in the absence (Control) or presence of cGMP-enhancing drug, sildenafil (5 μM). […] The experiments were repeated at least three times.

## Nc1nc2c(nc(Sc3ccc(Cl)cc3)n2C2O[C@@H]3COP(=O)(O)O[C@H]3[C@H]2O)c(=O)[nH]1 (stereo in doubt) [8-pCPT-cGMP]
[1]; PRP, agent added with subthreshold ristocetin (1 mg/mm [sic]) (or botrocetin), FIGS. 3B, 6A
  platelet aggregation together with a subthreshold concentration of ristocetin: induced integrin-dependent platelet aggregation
[2]; 0.5 mM 8-pCPT-cGMP, washed platelets, thrombin 0.05 u/ml, FIG. 7D
  preincubation time required to inhibit platelets: less than 5 minutes

## CCCCCCOC(=O)[C@]1(O)C[C@@H]2O[C@@]1(C)n1c3ccccc3c3c4c(c5c6ccccc6n2c5c31)C(=O)NC4 [KT5720]
[1]
  integrin-dependent second wave of platelet aggregation induced by ristocetin: no inhibitory effects

## COC(=O)[C@@]1(OC)C[C@H]2O[C@]1(C)n1c3ccccc3c3c4c(c5c6ccccc6n2c5c31)C(=O)N(C)C4 [KT5823]
[1]
  integrin-dependent second wave of platelet aggregation induced by ristocetin: abolished
[3]
  GPIb-IX-mediated integrin activation: inhibited
[4]
  platelet spreading on a vWF-coated surface: inhibited
[2]
  platelet aggregation induced by 0.05 units/ml α-thrombin: inhibited

## Nc1nc2c(nc(Sc3ccc(Cl)cc3)n2C2OC3COP(O)(=S)OC3C2O)c(=O)[nH]1 (stereo not drawn) [Rp-8-pCPT-cGMP]
[1]
  integrin-dependent second wave of platelet aggregation induced by ristocetin: inhibited
[2]
  platelet aggregation induced by 0.05 units/ml α-thrombin: inhibited

## CC(=O)NC(C(=O)NC1OC(CO)C(O)C(O)C1O)C(C)(C)SN=O (stereo not drawn) [glyco-SNAP1]
[5]
  platelet cGMP levels: comparable

## RGDS
[6]; FIG. 2C, 8-bromo-cGMP not shown
  stable adhesion of PKG-expressing 123 cells (123PKG) to vWF under flow: inhibited
[6]
  stable adhesion of sildenafil-treated 123 cells to vWF under flow: inhibited
[2]
  platelet aggregation induced by 0.05 units/ml α-thrombin: inhibited

## RGES
[2]
  platelet aggregation induced by 0.05 units/ml α-thrombin: no effect

## vWF: purified human von Willebrand factor, ligand of GPIb-IX
[5]
  platelet cGMP levels: dramatic increase
